Results taken from US7727516B2, “Reduction of hair growth” (The Procter & Gamble Company, priority 2006, dated 2010).

What was measured:
[1] = test system: human hair follicles in growth phase (anagen); experiment: Human hair follicle growth assay (hair follicle culture model); assay type: cell-based; details: follicle length day 6 minus day 0, statistically significant, read-out: hair growth inhibition compared to the control
Procedure: Human hair follicles in growth phase (anagen) were isolated from face-lift tissue (obtained from plastic surgeons). The skin was sliced into thin strips exposing 2-3 rows of follicles that could readily be dissected. Follicles were placed into William's E medium (Life Technologies, Gaithersburg, Md.) supplemented with 2 mM L-glutamine, 10 µg/ml insulin, 10 ng/ml hydrocortisone, and an antibiotic/antimicotic mixture as described in Philpott et al. (1990) J. Cell Sci. 97 (Pt3):463-71. The follicles were incubated in 24-well plates (1 follicle/well) at 37° C. in an atmosphere of 5% CO2 and 100% humidity for different periods of time (Philpott et al. (1990) supra). The length of hair follicle was assessed using an image analysis software system. To determine the effect of molecules modulating TRPM8/TRPA1 activity on hair growth, hair follicles were incubated with icilin (Tocris Bioscience) and L-Menthol, L-menthyl lactate (Sigma). Hair follicle images were taken in the 24-well plates under the dissecting scope under a power of 20×. Hair follicle length was measured on day 0 (day follicles were placed in culture) and again on day 6. The growth of hair fiber was calculated by the subtracting the follicle length on day 0 from that determined on day 6. To identify whether modulation of TRPM8 and TRPA1 activity could affect hair growth, their agonists were tested in the hair follicle culture model. Hair follicle treatment with 10 uM of menthol, icilin, and menthyl lactate, caused statistically significant hair growth inhibition by 40%, 45% and 60% respectively, compared to the control. […] Thus, activation of either TRPM8 or TRPA1 by a cooling agent leads to a significant reduction of hair growth rate in vitro.

[2] = test system: tyrosinase expression in hair follicles; experiment: Tyrosinase immunohistochemistry in treated hair follicles; assay type: cell-based, human; details: 10 uM
Procedure: For the immunodetection of melanogenic proteins, sections were incubated with either mouse monoclonal antibody against human tyrosinase or chicken monoclonal antibody against human p-mel 17 (Neomarker and Zymed, respectively; 1:100, overnight), followed by incubation with TRITC-labeled […] (Jackson ImmunoResearch; 45 min, 37° C.) and FITC-labeled goat anti-chicken IgG, respectively. Next, sections were counterstained with Hoechst 33342 (1:300, 15 min) for identification of cell nuclei, and mounted using VectaShield (Vector Laboratories). All sections were examined under a Olympus BX 60 fluorescent microscope and photodocumented with the help of a digital image analysis system (CoolSnap™ cooled CCD camera, Alpha Innotech) To determine whether a TRPM8 and TRPA1 agonist can affect pigment producing activity of the melanocytes, expression of tyrosinase was analyzed in the hair follicles treated with 10 uM icilin by immunohistochemistry. Tyrosinase expression was decreased in treated hair follicles, compared to the control. In addition, the effects of icilin on melanogenic protein expression were tested in human epidermal melanocytes culture. A decrease in tyrosinase and tyrosinase-related protein (TRP)-1 expression levels were observed 48 hours after 10 uM icilin treatment, compared to the control, as determined by Western blot analysis. […]

[3] = test system: human epidermal melanocytes; experiment: Western blot of melanogenic proteins in human epidermal melanocytes culture; assay type: cell-based; details: 10 uM, 48 hours
Procedure: Total cellular proteins of human melanocytes were harvested in a lysis buffer (Total protein extraction kit; CHEMICON International, Inc). Twenty […]g protein were loaded per lane, separated by 10% sodium dodecyl sulfate polyacrylamide gel electrophoresis, and transferred to nitrocellulose membrane at 100 V for 1 h. Following overnight blocking with 5% nonfat dry milk/bovine serum albumin (BSA) in Tris-phosphate-buffered saline (PBS) (0.5% Tween-20 in PBS) at 4° C., the membrane was incubated overnight with a monoclonal antibody against either tyrosinase or tyrosinase-related protein-1 or actin at a dilution of 1:1000. […] After extensive washing the membrane was incubated for 1 min with the enzyme-linked chemiluminescence Western Blotting Detection Reagent (Amersham, Buckinghamshire, U.K.), and bands were detected on preflashed Kodak X-Omat film and developed after several seconds of exposure.
To determine whether a TRPM8 and TRPA1 agonist can affect pigment producing activity of the melanocytes, expression of tyrosinase was analyzed in the hair follicles treated with 10 uM icilin by immunohistochemistry. […] A decrease in tyrosinase and tyrosinase-related protein (TRP)-1 expression levels were observed 48 hours after 10 uM icilin treatment, compared to the control, as determined by Western blot analysis. […]

[4] = test system: Ki-67 immunoreactivity in the hair matrix and outer root sheath; experiment: Ki-67 immunofluorescence for proliferating cells in cultured hair follicles; assay type: cell-based, human; details: hair follicle treatment, concentration-dependent
Procedure: For detection of proliferating cells the indirect immunofluorescence protocol using rabbit monoclonal antibody against Ki-67. Eight […]m hair follicle sections were fixed in formalin and postfixed in ethanol/acetic acid. […] Counterstaining was performed using HOECHST 33342 dye ([…] in PBS; 10 minutes). Each phase was interspersed by a washing step (three times) in PBS. Finally, sections were mounted using VectaShield Vector Laboratories). All sections were examined under a Olympus BX 60 fluorescent microscope and photodocumented with the help of a digital image analysis system (CoolSnap™ cooled CCD camera, Alpha Innotech) To identify whether modulation of TRPM8 and TRPA1 activity could affect hair growth, their agonists were tested in the hair follicle culture model. Hair follicle treatment with 10 uM of menthol, icilin, and menthyl lactate, caused statistically significant hair growth inhibition by 40%, 45% and 60% respectively, compared to the control. […] Thus, activation of either TRPM8 or TRPA1 by a cooling agent leads to a significant reduction of hair growth rate in vitro.

tyrosinase expression in treated hair follicles compared to the control [2]	Compound	inhibition at 10 µM [1] [%]	tyrosinase expression level compared to the control [3]	tyrosinase-related protein (TRP)-1 expression level compared to the control [3]	cell proliferation (Ki-67 immunoreactivity in hair matrix and outer root sheath) [4]
–	CC1CCC(C(C)C)C(OC(=O)C(C)O)C1 (stereo not shown) [menthyl lactate]	60	–	–	–
decreased	O=C1NC(c2cccc([N+](=O)[O-])c2)=CCN1c1ccccc1O [icilin, 1-(2-Hydroxyphenyl)-4-(3-nitrophenyl)-1,2,3,6-tetrahydropyrimidin-2-one]	45	decrease	decrease	inhibition of cell proliferation in a concentration-dependent manner
–	CC1CCC(C(C)C)C(O)C1 (stereo not shown) [menthol]	40	–	–	–
